The test system of experiment [1] is HBL-100. Briefly: (§1) Cytotoxic effect against HBL-100 (human breast cancer cell lines) by MTT assay at 10 ug concentration. It is filed as functional.
The subject of experiment [2] is HBL-100. The experiment is described as §1. It is filed as functional, cell-based.
Experiment [3] has as its system HBL-100. The experiment is described as follows: Cytotoxic effect against HBL-100 (human breast cancer cell lines) by MTT assay at 100 ug concentration. Type of experiment: functional.

Molecules are shown by their SMILES.

On to `CC1(C)O[C@@H]2[C@H](O1)[C@@H]1OCc3ccccc3C[C@@H](O)[C@H]2O1`, for which, in the experiment on HBL-100 [1], the Inhibition was 30.62% and the Viability was found to be 69.37%. The same molecule showed an Absorbance in the experiment with HBL-100 [2] of 0.153. In the experiment with HBL-100 [3], this molecule displayed an Asorbance of 0.081, an Inhibition of 63.3% and a Viability of 36.69%.

Source of the values: ChEMBL document CHEMBL1146796, “Design, synthesis and cytotoxic studies on the simplified oxy analog of eleutherobin” (2004).
